Laboratory results as given in patent US20240261258A1, “Presurgical Perineural Administration of Resiniferatoxin For Reduction of Post-Operative Pain” (Sorrento Therapeutics, Inc., priority 2021, published 2024).
Marks after values point to notes of the source that are not given here.

Test system: left stifle joint
Assay: Necropsy and histopathology of stifle joints
Assay type: in vivo, dog
Settings: for Bone remodeling with increased osteoblasts/osteoclasts: Mild, number of dogs / Bone remodeling with increased osteoblasts/osteoclasts: Minimal, number of dogs / Bone remodeling with increased osteoblasts/osteoclasts: Moderate, number of dogs / Bone remodeling with increased osteoblasts/osteoclasts: number of dogs with the finding / Collagen (picosirius red stain): number of dogs with the finding / Non-epiphyseal cartilage: Mild, number of dogs / Non-epiphyseal cartilage: Minimal, number of dogs / Non-epiphyseal cartilage: Moderate, number of dogs / Non-epiphyseal cartilage: number of dogs with the finding / Screw holes with intraluminal hemorrhage: Mild, number of dogs / Screw holes with intraluminal hemorrhage: number of dogs with the finding / Soft tissue mononuclear inflammation: Mild, number of dogs / Soft tissue mononuclear inflammation: Minimal, number of dogs / Soft tissue mononuclear inflammation: number of dogs with the finding / Synovial hypertrophy/hyperplasia: Mild, number of dogs / Synovial hypertrophy/hyperplasia: Minimal, number of dogs / Synovial hypertrophy/hyperplasia: Moderate, number of dogs / Synovial hypertrophy/hyperplasia: number of dogs with the finding: left stifle joint, 4 examined
From the text: These findings were confirmed during necropsy.
It was characterized by plump, variably piled synoviocytes with slightly more prominent fibrillary projections into the synovial spaces as compared to the control right stifle joints. Some control un-operated right stifle joints also occasionally had minimal synovial hypertrophy/hyperplasia typified by slightly plump, variably piled synoviocytes, but lacked increased fibrillary projections.
Soft tissue mononuclear inflammation was seen as small collections of lymphocytes, macrophages, and/or plasma cells or increased numbers of diffusely scattered mononuclear cells. The inflammation was commonly seen in the synovial lining subjacent to the synoviocytes, or in soft tissues that remained attached to the bone/joint. The incidences and average severity grades were not remarkably different between left joint groups.
Bone remodeling with increased osteoblasts/osteoclasts was characterized by irregular areas of bone/callous formation. Some areas of bone remodeling had increased cellularity due to increased numbers of osteoblasts and osteoclasts that outlined bone.
Presence of cartilage on the operated sides was presumptively interpreted to represent areas of residual cartilage in the physis which had been shifted/transposed by the TPLO surgery, and/or new cartilage formation. The amount of cartilage in each section was subjectively graded using the H&E and toluidine blue stains. […] Any differences could also be influenced by differences in physeal cartilage amounts/extent of physeal closure between dogs, and by plane-of-section variabilities.
A collagen score for each of the stifle joint slides stained with picosirius red was assigned based on the qualitative estimate of collagen present on the slide. The average of the three slides per joint was recorded. An overall collagen score for the left and right stifle joints for each group was calculated by averaging the individual collagen scores. […] The average collagen scores of groups 1-4 for the operated left legs were slightly higher than the corresponding un-operated right leg group average collagen scores. Higher collagen in the operated legs seemed consistent with post-surgical healing processes.

Compound: C=C(C)[C@]12C[C@@H](C)[C@@]34O[C@](Cc5ccccc5)(O[C@@H]1[C@@H]3C=C(COC(=O)Cc1ccc(O)c(OC)c1)C[C@]1(O)C(=O)C(C)=C[C@@H]41)O2 [RTX, resiniferatoxin]
- Microscopic changes in the left stifle joints (all RTX groups, day 56): No microscopic changes in the left stifle joints suggestive of RTX-related toxicity
- Callus at removal of the TPLO plate (all stifles, confirmed during necropsy): normal callus
- Bone remodeling with increased osteoblasts/osteoclasts: Mild, number of dogs (Group 1 High (25 μg)): 2
- Bone remodeling with increased osteoblasts/osteoclasts: Minimal, number of dogs (Group 1 High (25 μg)): 2
- Bone remodeling with increased osteoblasts/osteoclasts: Moderate, number of dogs (Group 1 High (25 μg)): 0
- Bone remodeling with increased osteoblasts/osteoclasts: number of dogs with the finding (Group 1 High (25 μg)): (4)
- Collagen (picosirius red stain): number of dogs with the finding (Group 1 High (25 μg)): (4)
- Non-epiphyseal cartilage: Mild, number of dogs (Group 1 High (25 μg)): 1
- Non-epiphyseal cartilage: Minimal, number of dogs (Group 1 High (25 μg)): 1
- Non-epiphyseal cartilage: Moderate, number of dogs (Group 1 High (25 μg)): 2
- Non-epiphyseal cartilage: number of dogs with the finding (Group 1 High (25 μg)): (4)
- Screw holes with intraluminal hemorrhage: Mild, number of dogs (Group 1 High (25 μg)): 4
- Screw holes with intraluminal hemorrhage: number of dogs with the finding (Group 1 High (25 μg)): (4)
- Soft tissue mononuclear inflammation: Mild, number of dogs (Group 1 High (25 μg)): 1
- Soft tissue mononuclear inflammation: Minimal, number of dogs (Group 1 High (25 μg)): 3
- Soft tissue mononuclear inflammation: number of dogs with the finding (Group 1 High (25 μg)): (4)
- Synovial hypertrophy/hyperplasia: Mild, number of dogs (Group 1 High (25 μg)): 4
- Synovial hypertrophy/hyperplasia: Minimal, number of dogs (Group 1 High (25 μg)): 0
- Synovial hypertrophy/hyperplasia: Moderate, number of dogs (Group 1 High (25 μg)): 0
- Synovial hypertrophy/hyperplasia: number of dogs with the finding (Group 1 High (25 μg)): (4)
- Bone remodeling with increased osteoblasts/osteoclasts: Mild, number of dogs (Group 2 Low (6.25 μg)): 2
- Bone remodeling with increased osteoblasts/osteoclasts: Minimal, number of dogs (Group 2 Low (6.25 μg)): 1
- Bone remodeling with increased osteoblasts/osteoclasts: Moderate, number of dogs (Group 2 Low (6.25 μg)): 1
- Bone remodeling with increased osteoblasts/osteoclasts: number of dogs with the finding (Group 2 Low (6.25 μg)): (4)^a
- Collagen (picosirius red stain): number of dogs with the finding (Group 2 Low (6.25 μg)): (4)^a
- Non-epiphyseal cartilage: Mild, number of dogs (Group 2 Low (6.25 μg)): 1
- Non-epiphyseal cartilage: Minimal, number of dogs (Group 2 Low (6.25 μg)): 1
- Non-epiphyseal cartilage: Moderate, number of dogs (Group 2 Low (6.25 μg)): 2
- Non-epiphyseal cartilage: number of dogs with the finding (Group 2 Low (6.25 μg)): (4)^a
- Screw holes with intraluminal hemorrhage: Mild, number of dogs (Group 2 Low (6.25 μg)): 4
- Screw holes with intraluminal hemorrhage: number of dogs with the finding (Group 2 Low (6.25 μg)): (4)^a
- Soft tissue mononuclear inflammation: Mild, number of dogs (Group 2 Low (6.25 μg)): 4
- Soft tissue mononuclear inflammation: Minimal, number of dogs (Group 2 Low (6.25 μg)): 0
- Soft tissue mononuclear inflammation: number of dogs with the finding (Group 2 Low (6.25 μg)): (4)^a
- Synovial hypertrophy/hyperplasia: Mild, number of dogs (Group 2 Low (6.25 μg)): 3
- Synovial hypertrophy/hyperplasia: Minimal, number of dogs (Group 2 Low (6.25 μg)): 0
- Synovial hypertrophy/hyperplasia: Moderate, number of dogs (Group 2 Low (6.25 μg)): 1
- Synovial hypertrophy/hyperplasia: number of dogs with the finding (Group 2 Low (6.25 μg)): (4)^a
- Bone remodeling with increased osteoblasts/osteoclasts: Mild, number of dogs (Group 3 Local (50 μg)): 2
- Bone remodeling with increased osteoblasts/osteoclasts: Minimal, number of dogs (Group 3 Local (50 μg)): 0
- Bone remodeling with increased osteoblasts/osteoclasts: Moderate, number of dogs (Group 3 Local (50 μg)): 2
- Bone remodeling with increased osteoblasts/osteoclasts: number of dogs with the finding (Group 3 Local (50 μg)): (4)
- Collagen (picosirius red stain): number of dogs with the finding (Group 3 Local (50 μg)): (4)
- Non-epiphyseal cartilage: Mild, number of dogs (Group 3 Local (50 μg)): 2
- Non-epiphyseal cartilage: Minimal, number of dogs (Group 3 Local (50 μg)): 0
- Non-epiphyseal cartilage: Moderate, number of dogs (Group 3 Local (50 μg)): 2
- Non-epiphyseal cartilage: number of dogs with the finding (Group 3 Local (50 μg)): (4)
- Screw holes with intraluminal hemorrhage: Mild, number of dogs (Group 3 Local (50 μg)): 4
- Screw holes with intraluminal hemorrhage: number of dogs with the finding (Group 3 Local (50 μg)): (4)
- Soft tissue mononuclear inflammation: Mild, number of dogs (Group 3 Local (50 μg)): 2
- Soft tissue mononuclear inflammation: Minimal, number of dogs (Group 3 Local (50 μg)): 2
- Soft tissue mononuclear inflammation: number of dogs with the finding (Group 3 Local (50 μg)): (4)
